Earlier results on one compound are cited in patent US20040224076A1, “Dietetic composition in the form of a salt substitute for table salt” (priority 1998, published 2004).

The conditions of this data set: oral supplementation, meta-analysis of 33 studies.

Turning to `[K+]` [potassium], the “reduction for diastolic pressure” value was 1.97 mm Hg and the “reduction for systolic pressure” value is listed as 3.11 mm Hg.
